From ChEMBL document CHEMBL3734739, “Synthesis and biological evaluation of novel derivatives of gambogenic acid as anticancer agents” (Medchemcomm, 2015) come the findings set out here.

Calls of active or inactive are those of the source. No cut-off for these calls is given here.

By IC50 is commonly meant the concentration that inhibits the measured activity by half.

The subject of experiment [1] is HepG2. Briefly: Cytotoxicity against human HepG2 cells by MTT assay. Format: functional, cell-based. For orientation: Tetrazolium assays rely on reduction of a dye to a coloured formazan, in cell work by metabolically active cells.
The nature of experiment [2]: Cytotoxicity against human PANC1 cells by MTT assay. Format: functional, cell-based. The conditions noted are these: PANC-1.
Experiment [3] has as its system U-251. The experiment in a line: Cytotoxicity against human U251 cells by MTT assay. Format: functional, cell-based.
Experiment [4] deals with A549. The experiment in a line: Cytotoxicity against human A549 cells by MTT assay. It counts as functional, cell-based.
Experiment [5] relates to HepG2. Briefly: Induction of apoptosis in human HepG2 cells assessed as ratio of Bcl2/Bax at 1.25 uM after 72 hrs by western blot analysis. It counts as functional. Background: In western blotting, separated proteins are transferred to a membrane and probed.
In experiment [6] the test system is HepG2. The experiment in a line: Induction of apoptosis in human HepG2 cells assessed as ratio of Bcl2/Bax at 0.625 uM after 72 hrs by western blot analysis. It counts as functional.
Experiment [7] deals with HepG2. The experiment in a line: Cell cycle arrest in human HepG2 cells at 0.3125 to 1.25 uM by propidium iodide staining based flow cytometric analysis. Format: functional. The note with it: TDE = time-dependent effect. (In flow cytometry, cells or beads pass a laser one at a time.)
The subject of experiment [8] is HepG2. Briefly: Induction of apoptosis in human HepG2 cells assessed as ratio of Bcl2/Bax at 0.3125 uM after 72 hrs by western blot analysis. It counts as functional.
The subject of experiment [9] is HepG2. Briefly: Induction of apoptosis in human HepG2 cells at […] to 1.25 uM after 48 hrs by annexin V/propidium iodide staining-based flow cytometric analysis relative to control. Format: functional, cell-based.
The subject of experiment [10] is HepG2. Briefly: Cell cycle arrest in human HepG2 cells after 24 hrs by propidium iodide staining based flow cytometric analysis. It counts as functional.
Experiment [11] concerns HepG2. Briefly: Cell cycle arrest in human HepG2 cells assessed as accumulation at S phase at 0.3125 to 1.25 uM by propidium iodide staining based flow cytometric analysis. Format: functional.

For `CC(C)=CCC/C(C)=C/Cc1c(O)c(CC=C(C)C)c2c(c1O)C(=O)C1=C[C@@H]3C[C@H]4C(C)(C)O[C@@](C/C=C(/C)C(=O)OCCCCN5CCN(CCO)CC5)(C3=O)[C@@]14O2`, the IC50 in [1] was 0.57 µM; in [2] it was 0.79 µM; in [3], 1.46 µM; in [4], 9.53 µM.

Turning to `CCN(CC)CCCCOC(=O)/C(C)=C\C[C@]12OC(C)(C)[C@@H]3C[C@H](C=C4C(=O)c5c(O)c(C/C=C(\C)CCC=C(C)C)c(O)c(CC=C(C)C)c5O[C@@]431)C2=O`, the IC50 in experiment [1] came to 2.41 µM; in [2], 1.84 µM; in experiment [3] it was 4.62 µM; in experiment [4] it was 3.18 µM.

On to `CC(C)=CCC/C(C)=C/Cc1c(O)c(CC=C(C)C)c2c(c1O)C(=O)C1=C[C@@H]3C[C@H]4C(C)(C)O[C@@](C/C=C(/C)C(=O)O)(C3=O)[C@@]14O2` [GAMBOGENIC ACID], for which the IC50 in [1] was 3.23 µM; in experiment [2], 4.16 µM; in experiment [3] it was 3.22 µM; in [4], 3.49 µM.

As to `CC(C)=CCC/C(C)=C/Cc1c(O)c(CC=C(C)C)c2c(c1O)C(=O)C1=C[C@@H]3C[C@@H]4C(C)(C)O[C@@](C/C=C(/C)C(=O)OCCN5CCN(C)CC5)(C3=O)[C@@]14O2`, the 50% inhibitory concentration (IC50) in [1] was determined as 2.83 µM; in experiment [2], 2.61 µM; in [3] it was 3.45 µM; in experiment [4], 1.61 µM.

Take `CC(C)=CCC/C(C)=C/Cc1c(O)c(CC=C(C)C)c2c(c1O)C(=O)C1=C[C@@H]3C[C@@H]4C(C)(C)O[C@@](C/C=C(/C)C(=O)OCCCCN5CCN(C)CC5)(C3=O)[C@@]14O2`: the IC50 in [1] came out at 10.8 µM; in experiment [2] it was 7.57 µM; in experiment [3], 17.5 µM; in [4], 3.23 µM.

On to `CC(C)=CCC/C(C)=C/Cc1c(O)c(CC=C(C)C)c2c(c1O)C(=O)C1=C[C@H]3C[C@H]4C(C)(C)O[C@](C/C=C(/C)C(=O)OCCCN5CCOCC5)(C3=O)[C@]14O2`, for which the IC50 in experiment [1] was determined as 5.79 µM; in experiment [2], 2.36 µM; in [3] it was 3.31 µM; in experiment [4] it was 1.3 µM.

As for `CCN(CC)CCCOC(=O)/C(C)=C\C[C@@]12OC(C)(C)[C@H]3C[C@@H](C=C4C(=O)c5c(O)c(C/C=C(\C)CCC=C(C)C)c(O)c(CC=C(C)C)c5O[C@]431)C2=O`, the IC50 in [1] was 2.64 µM; in [2], 2.85 µM; in experiment [3], 2.05 µM; in experiment [4] it was 2.94 µM.

For `CC(C)=CCC/C(C)=C/Cc1c(O)c(CC=C(C)C)c2c(c1O)C(=O)C1=C[C@@H]3C[C@@H]4C(C)(C)O[C@@](C/C=C(/C)C(=O)OCCCCN5CCCCC5)(C3=O)[C@@]14O2`, the IC50 in experiment [1] worked out at 3.92 µM; in [2], 4.43 µM; in experiment [3], 2.78 µM; in [4], 3.43 µM.

For `CC(C)=CCC/C(C)=C/Cc1c(O)c(CC=C(C)C)c2c(c1O)C(=O)C1=C[C@H]3C[C@H]4C(C)(C)O[C@](C/C=C(/C)C(=O)OCCCN5CCN(CCO)CC5)(C3=O)[C@]14O2`, the IC50 in [1] amounted to 2.75 µM; in experiment [2], 2.52 µM; in [3] it was 1.18 µM; in [4], 1.51 µM.

On to `CC(C)=CCC/C(C)=C/Cc1c(O)c(CC=C(C)C)c2c(c1O)C(=O)C1=C[C@H]3C[C@H]4C(C)(C)O[C@](C/C=C(/C)C(=O)OCCCN5CCCCC5)(C3=O)[C@]14O2`, for which the IC50 came to 3.59 µM in experiment [1], 4.66 µM in experiment [2], 8.87 µM in [3] and 2.54 µM in experiment [4].

As for `CC(C)=CCC/C(C)=C/Cc1c(O)c(CC=C(C)C)c2c(c1O)C(=O)C1=C[C@H]3C[C@H]4C(C)(C)O[C@](C/C=C(/C)C(=O)OCCN5CCCCC5)(C3=O)[C@]14O2`, the IC50 in experiment [1] stood at 0.97 µM; in experiment [2], 1.89 µM; in experiment [3] it was 4.93 µM; in experiment [4], 1.55 µM.

With `CCN(CC)CCOC(=O)/C(C)=C\C[C@@]12OC(C)(C)[C@H]3C[C@@H](C=C4C(=O)c5c(O)c(C/C=C(\C)CCC=C(C)C)c(O)c(CC=C(C)C)c5O[C@]431)C2=O`, the IC50 in experiment [1] stood at 1.95 µM; in experiment [2], 2.86 µM; in [3] it was 2.65 µM; in [4] it was 1.41 µM.

With `CC(C)=CCC/C(C)=C/Cc1c(O)c(CC=C(C)C)c2c(c1O)C(=O)C1=C[C@@H]3C[C@H]4C(C)(C)O[C@@](C/C=C(/C)C(=O)OCCN5CCN(CCO)CC5)(C3=O)[C@@]14O2`, the 50% inhibitory concentration (IC50) was 3.87 µM in [1], 2.51 µM in experiment [2], 3.82 µM in [3] and 2.44 µM in [4].

As to `CC(C)=CCC/C(C)=C/Cc1c(O)c(CC=C(C)C)c2c(c1O)C(=O)C1=C[C@@H]3C[C@@H]4C(C)(C)O[C@@](C/C=C(/C)C(=O)OCCCCN5CCOCC5)(C3=O)[C@@]14O2`, the IC50 was 14.3 µM in experiment [1], 18.6 µM in experiment [2], 21.6 µM in experiment [3] and 3.17 µM in [4].

`CC(C)=CCC/C(C)=C/Cc1c(O)c(CC=C(C)C)c2c(c1O)C(=O)C1=C[C@@H]3C[C@@H]4C(C)(C)O[C@@](C/C=C(/C)C(=O)OCCCN5CCN(C)CC5)(C3=O)[C@@]14O2`: the Activity entry in experiment [1] is “Dose-dependent effect”; in experiment [7], “tde”; in experiment [10] it was “Dose-dependent effect”. The IC50 came to 0.98 µM in experiment [1], 0.45 µM in experiment [2], 1.13 µM in experiment [3] and 1.65 µM in experiment [4]. Also, the Ratio was 0.251 in [5], 0.478 in [6] and 0.598 in [8]. Moreover, the outcome in [9] and in [11] was Active.

On to `CC(C)=CCC/C(C)=C/Cc1c(O)c(CC=C(C)C)c2c(c1O)C(=O)C1=C[C@H]3C[C@H]4C(C)(C)O[C@](C/C=C(/C)C(=O)OCCN5CCOCC5)(C3=O)[C@]14O2`, for which the IC50 amounted to 6.36 µM in experiment [1], 1.89 µM in experiment [2], 4.93 µM in [3] and 4.27 µM in experiment [4].
